Source: US5817669A, “Compounds, processes for the preparation thereof and anti-tumor agents” (Dainippon Pharmaceutical Co., Ltd., priority 1994, dated 1998)
Converted amounts (≈) assume the structure as drawn. Read-outs that look alike come from different tables or passages of the source. Each block holds one molecule with its values, some of them ahead of it.

Assays:
C33A human cervix cancer = assay: In vitro anti-tumor activity against C-33A human cervix cancer (MTT); type: cell-based; conditions: 72 h
Procedure: (§1) A culture medium containing 500 to 2,000 human cancer cells was put in an amount of 0.1 ml in each well of 96-well plate, and the cells were cultured for 20 hours under a condition of 37° C. and 5% carbon dioxide gas in air. After the culturing, a solution of test compounds of predetermined concentration was added, and then, the cells were cultured for further 72 hours. After the culturing, an MTT (5 mg/ml) solution was added in an amount of 0.01 ml in the respective wells, and the cells were cultured for further 4 hours. The supernatants of the culture medium were removed by suction, and then, 0.1 ml of dimethyl sulfoxide was put in respective well to dissolve the formed formazan, and, moreover, 0.1 ml of dimethyl sulfoxide was added.

A427 human lung cancer = assay: In vitro anti-tumor activity against A-427 human lung cancer (MTT); type: cell-based; conditions: A-427, 72 h
Procedure: as §1

HMV2 human melanoma = assay: In vitro anti-tumor activity against HMV-2 human melanoma (MTT); type: cell-based; conditions: HMV-2, 72 h
Procedure: as §1

[1] = test system: murine P388 lymphocytic leukemia cells; assay: Increases in life span of mice implanted with murine P388 lymphocytic leukemia cells; type: in vivo, SLC: BDF1 mice; conditions: Mus musculus, P388, ip, 720 h
Procedure: 1×10^6 murine P388 lymphocytic leukemia cells were intraperitoneally implanted in each of SLC: BDF1 mice (8 to 10 weeks old, female, 7 animals per one group). A test compound (drug) was either dissolved in 0.1 N--NaOH or suspended in 0.4% carboxymethylcellulose solution, and the resultant solution or suspension was diluted with distilled water or 0.4% carboxymethylcellulose solution so as to give predetermined concentrations for administration. The obtained solution was intraperitoneally (ip) administered twice, namely on the day following the implantation (1st day) and the 5th day, each 0.2 ml. The life and death of the mice were observed over a period of 30 days, and the median survival time (hereinafter referred to as MST) was determined for each group, and, thus, the increase in life span (ILS; %) was calculated according to the following equation:
ILS (%)=[{(MST of the test group)/(MST of the control group)}-1]×100
Drug effect was judged in the following manner, according to the criterion of U.S. National Cancer Institute (NCI):
ILS=75% or higher: ++ (remarkably effective);
20 to 74%: + (effective);
19% or lower: - (ineffective)

[2] = test system: colon 26 murine tumor cells; assay: Tumor growth inhibition effect on colon 26 murine tumor cells implanted mice; type: in vivo, SLC: CDF1 mice
Procedure: A 2% brei of colon 26 murine tumor cells was intracutaneously implanted each 0.1 ml in the abdominal part of SLC: CDF1 female mice (7 to 9 weeks old, 7 animals per one group). […] The obtained solutions were intraperitoneally (ip) administered each 0.2 ml once a day, from the day (1st day) following the implantation to the 9th day. On the 21st or 22nd day after the implantation, tumor weight was estimated from tumor diameters, and thus, the tumor growth inhibition rate (IR %) of the drug administered group in comparison with the control group was calculated according to the following equation. IR (%)=[1-{(MTW in the treated group)/(MTW in the control group)}]×10 0 MTW: mean tumor weight

[3] = test system: WiDr human colorectal cancer; assay: In vitro anti-tumor activity against WiDr human colorectal cancer (MTT); type: cell-based; conditions: 72 h
Procedure: as §1

[4] = test system: MKN45 human stomach cancer; assay: In vitro anti-tumor activity against MKN45 human stomach cancer (MTT); type: cell-based
Procedure: as §1

Acute toxicity = conditions: mouse, in vivo, mice, 14th day
Procedure: Solutions of test compounds in predetermined concentrations were administered (0.1 ml/10 g body weight) to female BALB/c CrSlc mice (5 to 10 animals per one group, 10 weeks old) respectively, and, thus, LD50 values were calculated from the mortalities of the mice on the 14th day after the administration.

[5] = test system: KB human nasopharynx cancer; assay: In vitro anti-tumor activity against KB human nasopharynx cancer (MTT); type: cell-based; conditions: 72 h
Procedure: as §1

[6] = test system: AZ521 human stomach cancer; assay: In vitro anti-tumor activity against AZ-521 human stomach cancer (MTT); type: cell-based; conditions: AZ-521, 72 h
Procedure: as §1

[7] = test system: murine P388 lymphocytic leukemia cells; assay: In vitro anti-tumor activity against murine P388 lymphocytic leukemia cells (MTT, 72 h); type: cell-based; conditions: Mus musculus, read-out: IC50 (50% proliferation inhibitory concentration)
Procedure: Test compounds were tested for anti-tumor activity according to MTT [3-(4,5-dimethylthiazol-2-yl)-2,5-diphenyltetrazolium bromide] method, using murine P388 lymphocytic leukemia cells. […] The culture medium was centrifuged (4° C., 2,000 rpm for 20 minutes), and thus, the supernatants were removed by suction. Then, 0.1 ml of dimethyl sulfoxide was put in each well to dissolve the formed formazan, and, subsequently, another 0.1 ml of dimethyl sulfoxide was added. The absorbance (OD) of each of the obtained solutions was measured by use of Multiskan Bichromatic (main wavelength 570 nm, sub-wavelength 690 nm). […] IC50 :μg/ml) were calculated by the least squares method.

[8] = NCI criterion, ip, 25 mg/kg, read-out: Evaluation
[9] = ip, 12.5 mg/kg, days 1 and 5, in solution, read-out: ILS (%) (in solution)
[10] = ip, 25 mg/kg, days 1 and 5, in solution, read-out: ILS (%) (in solution)
[11] = MKN-45, MKN45, 72 h, MTT, read-out: IC50
[12] = Intravenous administration (iv)
[13] = read-out: ILS (%) (in solution)

Compound: C[C@H](N)C(=O)NC1CCN(c2ccc3c(=O)c(C(=O)O)cn(-c4nccs4)c3n2)C1.Cl (stereo partly drawn) [Compound 3-1, 7-(3-L-alanylamino-1-pyrrolidinyl)-1,4-dihydro-4-oxo-1-(2-thiazolyl)-1,8-naphthyridine-3-carboxylic acid hydrochloride]
solubility relative to that of Compound 1-1 and 3 (Solubility; relative to Compound 1-1 and 3 (Z is hydrogen)): ≥ 10 times
solubility (Solubility; water): 79.4 mg/mL

Compound: CNC1(C)CCN(c2ccc3c(=O)c(C(=O)O)cn(-c4nccs4)c3n2)C1 (centres unmarked) [Compound 4]
IC50 (C33A human cervix cancer; C-33A, MTT, read-out: IC50): 0.144 µg/mL (≈ 0.374 µM)
IC50 (A427 human lung cancer; MTT, read-out: IC50): 0.194 µg/mL (≈ 0.503 µM)
IC50 (HMV2 human melanoma; MTT, read-out: IC50): 0.187 µg/mL (≈ 0.485 µM)
ILS at 3.13 mg/kg ([1]; NCI criterion, ip, 3.13 mg/kg, read-out: Evaluation): 20 to 74%
ILS at 6.25 mg/kg ([1]; NCI criterion, ip, 6.25 mg/kg, read-out: Evaluation): > 75%
ILS at 12.5 mg/kg ([1]; NCI criterion, ip, 12.5 mg/kg, read-out: Evaluation): > 75%
ILS at 25 mg/kg [1, 8]: > 75%
ILS at 3.13 mg/kg ([1]; ip, 3.13 mg/kg, days 1 and 5, in solution, read-out: ILS (%) (in solution)): 63%
ILS at 3.13 mg/kg ([1]; ip, 3.13 mg/kg, days 1 and 5, in suspension, read-out: ILS (%) (in suspension)): 63%
ILS at 6.25 mg/kg ([1]; ip, 6.25 mg/kg, days 1 and 5, in solution, read-out: ILS (%) (in solution)): 88%
ILS at 12.5 mg/kg [1, 9]: 125%
ILS at 12.5 mg/kg ([1]; ip, 12.5 mg/kg, days 1 and 5, in suspension, read-out: ILS (%) (in suspension)): 125%
ILS at 25 mg/kg [1, 10]: 150%
inhibition in vivo at 1.56 mg/kg ([2]; Mus musculus, Colon 26, 504 h, ip, 1.56 mg/kg once a day, days 1-9, day 21 or 22, read-out: Tumor growth inhibition rate IR (%)): 64%
inhibition in vivo at 3.13 mg/kg ([2]; Mus musculus, Colon 26, 504 h, ip, 3.13 mg/kg once a day, days 1-9, day 21 or 22, read-out: Tumor growth inhibition rate IR (%)): 89%
IC50 ([3]; MTT, read-out: IC50): 0.392 µg/mL (≈ 1.02 µM)
IC50 [4, 11]: 0.199 µg/mL (≈ 0.516 µM)
LD50 at 336 h (Acute toxicity; [12]): > 100 mg/kg
IC50 ([5]; KB, MTT, read-out: IC50): 0.172 µg/mL (≈ 0.446 µM)
IC50 ([6]; MTT, read-out: IC50): 0.1 µg/mL (≈ 0.259 µM)
IC50 ([7]; murine P388 cells, 72 h, MTT): 0.0175 µg/mL (≈ 0.0454 µM)

IC50 (C33A human cervix cancer; C-33A, MTT, read-out: IC50): 0.651 µg/mL (≈ 1.81 µM)
IC50 (A427 human lung cancer; MTT, read-out: IC50): 0.854 µg/mL (≈ 2.37 µM)
IC50 (HMV2 human melanoma; MTT, read-out: IC50): 2.88 µg/mL (≈ 7.99 µM)
IC50 ([3]; MTT, read-out: IC50): 4.09 µg/mL (≈ 11.3 µM)
IC50 [4, 11]: 1.27 µg/mL (≈ 3.52 µM)
IC50 ([5]; KB, MTT, read-out: IC50): 1.94 µg/mL (≈ 5.38 µM)
IC50 ([6]; MTT, read-out: IC50): 0.797 µg/mL (≈ 2.21 µM)
IC50 ([7]; murine P388 cells, 72 h, MTT): 0.0942 µg/mL (≈ 0.261 µM)
Compound: O=C(O)c1cn(-c2nccs2)c2nc(N3CCCC3)c(F)cc2c1=O [Compound A, reference compound]
ILS at 25 mg/kg [1, 8]: 20 to 74%
ILS at 50 mg/kg ([1]; NCI criterion, ip, read-out: Evaluation): 20 to 74%
ILS at 12.5 mg/kg [1, 9]: 0%
ILS at 25 mg/kg [1, 10]: 25%
ILS at 50 mg/kg ([1]; ip, days 1 and 5, in solution, read-out: ILS (%) (in solution)): 38%
inhibition in vivo at 12.5 mg/kg ([2]; Mus musculus, Colon 26, 504 h, ip, 12.5 mg/kg once a day, days 1-9, day 21 or 22, read-out: Tumor growth inhibition rate IR (%)): 23%
tumor growth inhibition (IR), colon 26, in words ([2]; in words): apparently inferior to the compounds of this invention in view of both doses and inhibition rates

Compound: COc1cc([C@@H]2c3cc4c(cc3[C@@H](O[C@@H]3O[C@@H]5CO[C@@H](C)O[C@H]5[C@H](O)[C@H]3O)[C@H]3COC(=O)[C@H]23)OCO4)cc(OC)c1O [Compound H, Etoposide, reference compound]
IC50 (C33A human cervix cancer; C-33-A): 0.084 µg/mL (≈ 0.143 µM)
IC50 (A427 human lung cancer): 0.095 µg/mL (≈ 0.161 µM)
IC50 (HMV2 human melanoma): 0.298 µg/mL (≈ 0.506 µM)
ILS at 1.56 mg/kg ([1]; read-out: Evaluation): 20 to 74%
ILS at 3.13 mg/kg ([1]; read-out: Evaluation): > 75%
ILS at 6.25 mg/kg ([1]; read-out: Evaluation): > 75%
ILS at 12.5 mg/kg ([1]; read-out: Evaluation): > 75%
ILS at 25 mg/kg ([1]; read-out: Evaluation): > 75%
ILS at 1.56 mg/kg [1, 13]: 50%
ILS at 3.13 mg/kg [1, 13]: 75%
ILS at 6.25 mg/kg [1, 13]: 100%
ILS at 12.5 mg/kg [1, 13]: 150%
ILS at 25 mg/kg [1, 13]: > 275%
inhibition in vivo at 12.5 mg/kg ([2]; Mus musculus, Colon 26, ip, 504 h, read-out: Tumor growth inhibition rate IR (%)): 57%
IC50 [3]: 1.63 µg/mL (≈ 2.77 µM)
IC50 ([4]; MKN-45, 72 h): 0.49 µg/mL (≈ 0.833 µM)
LD50 at 336 h (Acute toxicity; Intraperitoneal administration (ip)): 71 mg/kg
LD50 at 336 h (Acute toxicity; [12]): 123 mg/kg
IC50 [5]: 0.201 µg/mL (≈ 0.342 µM)
IC50 [6]: 0.08 µg/mL (≈ 0.136 µM)
IC50 ([7]; P388, 72 h): 0.00849 µg/mL (≈ 0.0144 µM)
